Tests used:
[1] = tested on: D.T.H. response in mice immunized with SRBC as antigen; test: D.T.H. footpad test in mice immunized with SRBC, Examples 3-6 (dosages per mouse); format: in vivo; conditions: for Degree of swelling: control = 100; for Degree of swelling, Intraperitoneal injection / Degree of swelling, Oral administration: Table 5
Description: The effect of (2S,3R)-AHPA on cell-mediated immunity was tested in the same way in Example 2, namely according to the D.T.H. technique using mice immunized with sheep red blood cell as antigen. Thus, a suspension of 10^8 sheep red blood cells in 0.05 ml of physiological saline were subcutaneously injected at the time of immunization into the right hind footpad of each CDF1 -mouse under test (female, 8 weeks-aged, 5 mice in each group) to establish D.T.H. […] The degree of swelling was evaluated. By way of comparison, bestatin was tested in the same way as above. […] The effect of (2S,3R)-AHPA on the D.T.H. response was estimated in the same manner as in the above procedure (A) of Example 3 by orally administering 1 mcg/mouse, 0.1 mcg/mouse or 0.01 mcg/mouse of (2S,3R)-AHPA to each mouse under test. […] The effect of the mode of administering (2S,3R)-AHPA on the D.T.H. response was estimated in the same manner as in the procedure (A) of Example 3, except that the test compound (as aqueous solution) was injected intraperitoneally in stead of being given orally.

ICR-strain mice = test: acute toxicity, intraperitoneal, ICR-strain mice; format: in vivo, mouse; conditions: dosage of 100 mg/kg
Text: In order to estimate the acute toxicity of the compound of the formula (VIII) or (IIId), some of the test compound was intraperitoneally given to ICR-strain mice (in groups each consisting of 6 mice, male, 5 weeks-aged, average body weight 20 g.), when all the tested mice tolerated intraperitoneal administration of (2S,3R)-APHA; (2S)-2-N-[(2'S,3'R)-3'-amino-2'-hydroxy-4'-phenyl-butanoyl]amino-4-methyl- pentanol; (2S)-2-N-[(2'S,3'R)-3'-amino-2'-hydroxy-4'-phenylbutanoyl-(S)-leucyl]amino-4-methyl-pentanol; (2S,3R)-3-amino-2-hydroxy-4-phenylbutanoyl-(S)-leucyl-(S)-leucine; (2S,3R)-3-amino-2-hydroxy-4-phenyl-butanoyl-(S)-leucyl-(S)-arginine; (2S,3R)-3-amino-2-hydroxy-4-phenylbutanoyl-(S)-leucyl-(S)-asparagine; (2R,3R)-3-amino-2-hydroxy-4-phenylbutanoyl-(S)-leucyl-(R)-asparagine; and (2S,3R)-3-amino-2-hydroxy-4-phenylbutanoyl-(S)-leucyl-(R)-arginine at a dosage of 100 mg/kg.

aminopeptidase B = target: T1, aminopeptidase B (Rattus norvegicus, UniProt O09175); conditions: Journal of Medicinal Chemistry Vol. 20, No.4, pp. 510-515 (1977); cited from earlier work
T1 sequence (O09175 1-650): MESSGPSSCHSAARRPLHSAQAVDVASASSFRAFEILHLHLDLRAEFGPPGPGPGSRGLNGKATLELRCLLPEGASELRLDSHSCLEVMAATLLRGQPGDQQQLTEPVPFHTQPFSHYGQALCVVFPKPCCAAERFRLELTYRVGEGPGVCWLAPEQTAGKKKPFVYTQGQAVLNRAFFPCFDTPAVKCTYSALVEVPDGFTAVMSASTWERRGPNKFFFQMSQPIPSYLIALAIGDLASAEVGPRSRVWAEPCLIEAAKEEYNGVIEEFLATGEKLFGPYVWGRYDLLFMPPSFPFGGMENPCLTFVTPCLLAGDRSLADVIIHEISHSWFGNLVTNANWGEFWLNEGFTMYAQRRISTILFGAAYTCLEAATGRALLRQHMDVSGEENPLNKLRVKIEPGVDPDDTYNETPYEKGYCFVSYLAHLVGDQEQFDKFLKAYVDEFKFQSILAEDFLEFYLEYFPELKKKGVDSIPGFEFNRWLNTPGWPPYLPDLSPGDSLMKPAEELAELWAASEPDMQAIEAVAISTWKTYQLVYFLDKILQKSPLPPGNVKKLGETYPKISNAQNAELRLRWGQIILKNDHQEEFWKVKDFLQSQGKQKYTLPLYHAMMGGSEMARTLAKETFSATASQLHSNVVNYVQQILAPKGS

N[C@H](Cc1ccccc1)[C@H](O)C(=O)O [(2S,3R)-AHPA]
Increase in thickness of footpad (± S.D.) ([1]; Table 3, oral 0.01 mcg/mouse): 10.6 ± 1.17 × 0.1 mm | Degree of swelling ([1]; Table 3, oral 0.01 mcg/mouse): 134% | Increase in thickness of footpad (± S.D.) ([1]; Table 3, oral 0.1 mcg/mouse): 11.6 ± 1.85 × 0.1 mm | Degree of swelling ([1]; Table 3, oral 0.1 mcg/mouse): 147% | Increase in thickness of footpad (± S.D.) ([1]; Table 3, oral 1 mcg/mouse): 11.9 ± 0.97 × 0.1 mm | Degree of swelling ([1]; Table 3, oral 1 mcg/mouse): 151% | Increase in thickness of footpad (± S.D.) ([1]; Table 3, oral 10 mcg/mouse): 10.9 ± 0.57 × 0.1 mm | Degree of swelling ([1]; Table 3, oral 10 mcg/mouse): 138% | Increase in thickness of footpad (± S.D.) ([1]; Table 4, oral 0.01 mcg/mouse): 10.1 ± 1.52 × 0.1 mm | Degree of swelling ([1]; Table 4, oral 0.01 mcg/mouse): 125% | Increase in thickness of footpad (± S.D.) ([1]; Table 4, oral 0.1 mcg/mouse): 11.1 ± 0.82 × 0.1 mm | Degree of swelling ([1]; Table 4, oral 0.1 mcg/mouse): 137% | Increase in thickness of footpad (± S.D.) ([1]; Table 4, oral 1 mcg/mouse): 10.8 ± 1.29 × 0.1 mm | Degree of swelling ([1]; Table 4, oral 1 mcg/mouse): 133% | Degree of swelling, Intraperitoneal injection ([1]; intraperitoneal 1 mcg/mouse): 143% | Degree of swelling, Intraperitoneal injection ([1]; intraperitoneal 10 mcg/mouse): 128% | Degree of swelling, Oral administration ([1]; oral 1 mcg/mouse): 135% | Degree of swelling, Oral administration ([1]; oral 10 mcg/mouse): 126% | Increase in thickness of footpad (± S.D.) ([1]; Table 7, oral 1 mcg/mouse): 11.7 ± 1.29 × 0.1 mm | Degree of swelling ([1]; Table 7, oral 1 mcg/mouse): 135% | Increase in thickness of footpad (± S.D.) ([1]; Table 7, oral 10 mcg/mouse): 11.0 ± 1.05 × 0.1 mm | Degree of swelling ([1]; Table 7, oral 10 mcg/mouse): 126% | enhancement of cell-mediated immunity compared with bestatin ([1]; intraperitoneal injection or oral administration): enhances the cell-mediated immunity as much as or much more than bestatin | immunopotentiating activity compared with bestatin ([1]; oral 0.01 to 10 mcg/mouse versus bestatin oral 1 to 10 mcg/mouse): exhibits the immunopotentiating activity as high as bestatin | enhancement of D.T.H. response compared with bestatin ([1]; oral, dosages lower than 1 mcg/mouse): enhances the D.T.H. response much more than bestatin | enhancement of cell-mediated immunity ([1]; oral, low dosage of 0.01 mcg/mouse): active to enhance the cell-mediated immunity | acute toxicity: tolerance of intraperitoneal administration (ICR-strain mice): tolerated | inhibitory activity to aminopeptidase B (aminopeptidase B): weak inhibitory activity | solubility in water (solubility in water): soluble in water
